Test results as given in patent US20130178536A1, “SUBSTITUTED CIS- AND TRANS-STILBENES AS THERAPEUTIC AGENTS” (STC.UNM, priority 2006, published 2013).

Tests used:
Assay type in all cases: in vivo, mouse
Aβ plaques [1] = experiment: Areal density of Aβ plaques in brains of AD transgenic mice (Thioflavin-S histology); conditions: for Plaque areal density: 100 ppm in diet, 1 year, mean±S.E.M., p<0.001, untreated 79.8±2.4; for Decrease in plaque areal density: vs untreated transgenic mice
Description: (§1) B6C3 transgenics (Jackson Laboratory) were used. These double transgenic mice express a chimeric mouse/human amyloid precursor protein (Mo/HuAPP695swe) and a mutant human presenilin 1 (PS1-dE9) both directed to CNS neurons. Both mutations are associated with early-onset Alzheimer's disease. The “humanized” Mo/HuAPP695swe transgene allows the mice to secrete a human Ab peptide. The included Swedish mutations (K595N/M596L) elevate the amount of Ab produced from the transgene by favoring processing through the beta-secretase pathway. Transgenic mice develop beta-amyloid deposits in brain by six to seven months of age. These animals also display a slight alteration in their tail phenotype that is believed to be due to the mixed genetic background of the strain and is not related to transgene expression. These mice are useful in studies of neurological disorders of the brain, specifically Alzheimer's disease, amyloid plaque formation.
(§2) Female B6C3 transgenics were used. Animals were housed 5/cage and fed ad libitum. Groups included controls, RV groups, compound 1 groups and compound 2 groups. Each group was comprised of 15 animals. Diets contained standard dyes to provide different colors to each diet to avoid confusion during the 12 months feeding.
(§3) Transgenic mice carrying mutated APP and presenilin-1 were fed this diet. It was observed early on that compound 2a (4cc) was toxic. Therefore, it was discontinued in the study. […] Twenty four hrs before sacrifice, SPIONs were injected via the tail vein. […] The MRI conspicuity of the plaques increased from a Z-score (signal to noise ratio) of 4.6±0.6 to 8.0±0.1 when the plaque Z-score was compared in control AD mice with AD mice treated with nanoparticles. The number of MRI-visible plaques per brain increased from 355±39 in the control AD mice, to 668±52 in the SPION treated mice.
Paraffin embedded brain sections were rehydrated by progressively immersing them in Hemo-De, 95% EtOH, 70% EtOH and finally 0.1M PBS. […] Images were taken with a Zeiss Axioskop 2 equipped with a Zeiss AxioCam and a Prior Lumen 200 fluorescence lamp (Cancer Center Fluorescence Microscopy Facility, University of New Mexico, Albuquerque, N. Mex., USA, http://hsc.unm.edu/crtc/microscopy/). […]
(§4) Plaque number and area were measured on the CCD images of the IHC brain sections with the aid of ImageJ software (NIH) by thresholding and conversion of the images to binary images. The radial sizes of the plaques were measured using ImageJ on Thioflavin-S stained fluorescence micrographs of brain sections. The radial distributions of activated microglia were measured on spatially calibrated fluorescence micrographs of Iba-1 stained brain sections using the center of the plaque as the local point of reference and the center of the DAPI-stained microglial nucleus as the endpoint. […]

Aβ plaques [2] = experiment: MRI-detected plaques in brains of AD transgenic mice with anti-APP SPIONs; conditions: for Decline in number of plaques per brain: 100 ppm in diet, 1 year, MRI
Description: as §1, §2
Transgenic mice carrying mutated APP and presenilin-1 were fed this diet. It was observed early on that compound 2a (4cc) was toxic. Therefore, it was discontinued in the study. […] Twenty four hrs before sacrifice, SPIONs were injected via the tail vein. […]
Pilot MRI studies of this line of transgenic mice were carried out at three magnetic field strengths: at 4.7 Tesla, at the UNM BRaIN Imaging Center, and at 9.4 and 16.4 Tesla at the Center for Magnetic Resonance Research at the University of Minnesota. […] One hundred ninety two MRI slices were analyzed by counting plaques in each slice, and by computing the statistical significance of the intensity in the hypointense plaque core versus the noise level in the surrounding tissue. […]

activated microglia = experiment: Activated microglia density and radial distribution in brains of AD transgenic mice (Iba-1 staining); conditions: for Areal density of activated microglia: 100 ppm in diet, 1 year, mean±S.E.M., p<0.001, untreated 86.1±2.8; for Decrease in areal density of activated microglia: vs untreated transgenic mice
Description: as §1, §2, §3
Paraffin embedded brain sections were rehydrated by progressively immersing them in Hemo-De, 95% EtOH, 70% EtOH and finally 0.1M PBS. Antigens were retrieved by placing the slides in 6.0 pH 0.01 M sodium citrate buffer with heating to 90° C. for 20 minutes. After cooling to r.t., the slides were stained with Thioflavin-S as above. After rehydrating with 0.1M PBS for 5 minutes, the slides were blocked with 0.1M PBS containing 6% normal donkey serum for 45 minutes and then incubated overnight with rabbit anti-Iba-1, diluted 1:400, at 4° C. in a humidity chamber. The next day the slides were washed three times with 0.1M PBS. The secondary antibody, rhodamine-conjugated donkey anti-rabbit IgG, was diluted with 0.5% BSA in 0.1M PBS to 1:200 under light-restricted conditions. 100 μl of this secondary antibody solution was applied to each brain slice for 2 h in a light-tight container at r.t. The slides were then rinsed three times with 0.1M PBS and twice with dd water. Vectashield with DAPI was applied and the slides were cover-slipped and sealed for imaging. Images were taken with a Zeiss Axioskop 2 equipped with a Zeiss AxioCam and a Prior Lumen 200 fluorescence lamp (Cancer Center Fluorescence Microscopy Facility, University of New Mexico, Albuquerque, N. Mex., USA, http://hsc.unm.edu/crtc/microscopy/). Images were processed using Slidebook (Denver, Colo.). Confocal images were taken and processed using Zen (Carl Zeiss MicroImaging GmbH, Germany).
as §4

Row | Structure (SMILES) | Plaque areal density (Aβ plaques [1]) [plaques/mm^2] | Decrease in plaque areal density (Aβ plaques [1]) [%] | Decline in number of plaques per brain (Aβ plaques [2]) | Total number of MRI-determined plaques (Aβ plaques [2]; fed over entire life span, anti-APP SPIONs for 24 hours, SPION control n=668) | Proximal halo of microglia around plaques (activated microglia) [µm] | Areal density of activated microglia (activated microglia) [microglia/mm^2] | Decrease in areal density of activated microglia (activated microglia) [%]
1 | COc1ccc(/C=C/c2ccccc2F)cc1 [1a (LD-55)] | 55.4±4.8 | 31 | 3-6 fold | 209 | 24 | 44.2±3.2 | 49
2 | Oc1ccc(/C=C/c2cc(O)cc(O)c2)cc1 [Resveratrol, reference compound] | 51.8±2.4 | 35 | 3-6 fold |  | 17 | 34.7±1.8 | 60
